{
  "source": "patent US9592223B2",
  "about": "“Small molecule inhibitors of MALT1” (Cornell University, priority 2012, dated 2017)",
  "key": {"Caspase-8": {"molecular_target": "Caspase-8 (Homo sapiens, UniProt Q14790)", "sequence (Q14790 217-374 limits assumed)": "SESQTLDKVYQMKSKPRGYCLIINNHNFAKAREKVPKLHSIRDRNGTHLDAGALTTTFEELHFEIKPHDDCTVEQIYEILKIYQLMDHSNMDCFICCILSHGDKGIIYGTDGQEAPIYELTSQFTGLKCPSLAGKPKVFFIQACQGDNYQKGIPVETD", "sequence (Q14790 385-479 limits assumed)": "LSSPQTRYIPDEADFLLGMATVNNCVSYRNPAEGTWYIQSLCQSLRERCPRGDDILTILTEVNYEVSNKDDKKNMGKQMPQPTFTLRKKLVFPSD", "test": "Caspase selectivity", "format": "biochemical"}, "cell cycle": {"system": "cell cycle", "test": "BrdU incorporation - DAPI staining cell cycle flow cytometry", "format": "cell-based", "conditions": "increasing concentrations", "method": "Cell proliferation was examined using the CFSE dilution assay by flow cytometry on viable cells at 48, 72 and 96 h. […] Trypan blue exclusion and apoptosis assessed by Annexin V^+ DAPI^− flow cytometry was measured every 48 hr for a period of 14 days.\nTo determine cell-cycle distribution, cells were analyzed by flow cytometry using pulse-BrdU (bromodeoxyuridine) incorporation with the APC BrdU Flow Kit (BD Pharmingen, San Jose, Calif.)."}, "[1]": {"system": "ABC-DLBCL cell lines HBL-1 and TMD8 vs GCB-DLBCL cell line OCI-Ly1", "test": "Cell proliferation of selected hits and analogs, ATP-based metabolic luminescent assay", "set-up": "species or system human", "text": "MALT1 activity plays an important role in selectively maintaining proliferation of ABC-DLBCL cell lines (Ngo et al., 2006). Accordingly ABC and GCB-DLBCL cell lines present differential sensitivity to MALT1 cleavage inhibition by the peptide Z-VRPR-FMK (Ferch et al., 2009; Hailfinger et al., 2009; Rebeaud et al., 2008). To determine whether candidate small molecules display a similar profile two ABC-DLBCL cell lines, HBL-1 and TMD8, and one GCB-DLBCL cell line, OCI-Ly1, were exposed to increasing concentrations of the nineteen selected molecules. Cell proliferation was measured 48 hr after exposure to a single dose of compound using an ATP-based metabolic luminescent assay (summarized in FIG. 1C).\n(§1) A total of 704 analog compounds from available libraries with similarity score ≧70% (Tanimoto similarity functions) were screened by LZ-MALT1 fluorescence assay.\nCell proliferation was determined by ATP quantification using a luminescent method (CellTiter-Glo, Promega, Madison, Wis.) and Trypan blue dye-exclusion (Sigma, St. Louis, Mo.). […]\n(§2) DLBCL cell lines were grown in exponential growth conditions during the 48 hr of treatment. Cell proliferation was determined by ATP quantification using a luminescent method (CellTiter-Glo, Promega, Madison, Wis.) and Trypan blue dye-exclusion (Sigma, St. Louis, Mo.). […]"}, "[2]": {"system": "primary human GCB DLBCL cells", "test": "Primary human DLBCL cells ex vivo, GCB cases, Trypan blue", "format": "cell-based", "conditions": "0.8 μM, 48 hr", "method": "After 48 hr exposure, cell number and viability were determined using Trypan blue.\nPatient de-identified tissues were obtained in accordance with the guidelines and approval of the Weill Cornell Medical College Review Board. Patient samples were processed as previously described (Cerchietti et al., 2010). Briefly, single cell suspensions from lymph node biopsies were obtained by physical disruption of tissues followed by cell density gradient separation (Fico/Lite LymphoH, Atlanta Biologicals, Lawrenceville, Ga.). Cell number and viability were determined by Trypan blue exclusion. Primary DLBCL cells were cultured in 96-well plates. Cells were grown in advanced RPMI medium with 20% FBS supplemented with antibiotics for 48 hours. […] After 48 hr of exposure, viability was determined by using Trypan blue (Sigma). All samples were normalized to their own replicate control. Statistical significance was calculated using paired T-test."}, "[3]": {"system": "MALT1-mediated cleavage of CYLD", "test": "MALT1-mediated cleavage of CYLD in HBL-1 cells, Western blotting and densitometry", "format": "cell-based, human", "method": "as §1\nEqual amounts of total protein (20-75 μg) were separated on sodium dodecyl sulfate-polyacrylamide gel electrophoresis (SDS-PAGE), and electrotransferred onto nitrocellulose membranes. Membranes were incubated with primary antibodies (MALT1, BCL-10, CYLD from Santa Cruz Biotechnologies, Santa Cruz, Calif.; A20 from eBioscience, San Diego, Calif.; phospho-IκB-α, IκB-α, c-REL, RELB from Cell Signaling, Danvers, Mass. and α-Tubulin from Sigma), followed by secondary antibodies conjugated to horseradish peroxidase, which were detected by chemiluminescence (Pierce, Thermo Scientific, Rockford, Ill.)."}, "c-REL": {"system": "c-REL", "test": "c-REL flow cytometry of whole cells or isolated nuclei, HBL-1 cells", "format": "cell-based, human", "conditions": "200 nM MI-2 or 50 μM Z-VRPR-FMK, 24 hr", "method": "MALT1 mediates c-REL translocation to the nucleus following BCR stimulation (Ferch et al., 2007). […] This selectivity towards c-REL had also been previously shown in MALT1 knockout mice and after MALT1 cleavage inhibition by the MALT1 blocking peptide Z-VRPR-FMK (Ferch et al., 2009; Ferch et al., 2007; Hailfinger et al., 2011).\n[…] was studied by flow cytometry. Cells were treated as indicated and total cells or isolated nuclei were prepared and stained for c-REL. Total cells were fixed and permeabilized using the Intrastain kit from Dako (Glostrup, Denmark). For nuclei extraction, cells were resuspended in cold nuclei extraction buffer (320 mM sucrose, 5 mM MgCl2, 10 mM HEPES, 1% Triton X-100 at pH 7.4), incubated for 10 min on ice and washed twice with nuclei wash buffer (320 mM sucrose, 5 mM MgCl2, 10 mM HEPES at pH 7.4, no Triton X-100). Nuclei yield and integrity were confirmed by microscopic examination with trypan blue staining. For labeling, nuclei wash buffer was supplemented with 1% BSA, 0.1% sodium azide and 1:100 c-REL antibody (Cell Signaling). Cells were washed then incubated with Alexa Fluor-488 conjugated secondary antibodies from Invitrogen. Cells were washed again and stained with DAPI followed by flow cytometry."}, "[4]": {"system": "GCB-DLBCL cell lines OCI-Ly7 and OCI-Ly1", "test": "Growth inhibition, GCB-DLBCL cell lines", "format": "cell-based, human", "conditions": "increasing concentrations, single dose, 48 hr", "method": "Endogenous MALT1 activity was evaluated by Western blotting for A20, BCL10 and CYLD; and NF-κB activation, by phospho-IκB-α and total IκB-α. Dependence on MALT1 proteolytic activity for proliferation was tested by 50[…]μM Z-VRPR-FMK treatment for 48 hr. […] The U2932 and HLY1 ABC-DLBCL cell lines harbor mutations in TAK1 and A20, which activate NF-κB signaling downstream of MALT1.\nCell proliferation was determined by ATP quantification using a luminescent method (CellTiter-Glo, Promega, Madison, Wis.) and Trypan blue dye-exclusion (Sigma, St. Louis, Mo.). Cell viability in drug-treated cells was normalized to their respective controls (fractional viability) and results are given as 1-fractional viability. […]\nas §2, with “Mo.). Luminescence was measured using the Synergy4 microplate reader (BioTek Instruments, Winooski, Vt.). Standard curves for each cell line were calculated by plotting the cell number (determined by the Trypan blue method) against their luminescence values and number of cells was calculated accordingly.” for “Mo.).”"}},
  "data": [
    {"smiles": "COCCOc1nc(-c2ccc(Cl)c(Cl)c2)n(-c2ccc(NC(=O)CCl)cc2)n1", "note": "[MI-2]", "values": [
      {"measurement": "activity against Caspase-8", "setting": "Caspase-8", "result": "little activity"},
      {"measurement": "cell cycle distribution", "setting": "cell cycle", "result": "dose-dependent decrease in S phase"},
      {"measurement": "GI25 concentrations", "setting": "[1]; 48 hr", "result": "high nanomolar range"},
      {"measurement": "suppression of cell proliferation, ABC-DLBCL vs GCB-DLBCL cell lines", "setting": "[1]; 48 hr after a single dose, increasing concentrations", "result": "significant selective dose-dependent suppression of ABC-DLBCL cells"},
      {"measurement": "response of cell number and viability", "setting": "[2]", "result": "none of the GCBs did"},
      {"measurement": "MALT1-mediated cleavage of CYLD", "setting": "[3]; HBL-1, increasing concentrations, 24 hr", "result": "dose-dependent decrease in MALT1-mediated cleavage"},
      {"measurement": "inhibition of MALT1 cleavage of CYLD", "setting": "[3]; analogs 5 μM for 8 hr, Z-VRPR-FMK 50 μM as positive control", "result": "most potent compound"},
      {"measurement": "nuclear c-REL", "setting": "c-REL; isolated nuclei", "result": "reduced nuclear c-REL"},
      {"measurement": "whole cell c-REL", "setting": "c-REL; whole cells", "result": "without affecting whole cell levels"},
      {"measurement": "growth inhibition", "setting": "[4]", "result": "resistant"}
    ]}
  ]
}
